Results published in publication PMC8957877, “The Resistance of Cancer Cells to Palbociclib, a Cyclin-Dependent Kinase 4/6 Inhibitor, is Mediated by the ABCB1 Transporter” (Frontiers in Pharmacology, 2022).

Tests used:
ABCB1 transporter [1] = biological target: T1, ABCB1 transporter (Homo sapiens, UniProt P08183); assay: biochemical
ABCB1 transporter [2] = biological target: T1, ABCB1 transporter

T1 sequence (P08183 whole entry): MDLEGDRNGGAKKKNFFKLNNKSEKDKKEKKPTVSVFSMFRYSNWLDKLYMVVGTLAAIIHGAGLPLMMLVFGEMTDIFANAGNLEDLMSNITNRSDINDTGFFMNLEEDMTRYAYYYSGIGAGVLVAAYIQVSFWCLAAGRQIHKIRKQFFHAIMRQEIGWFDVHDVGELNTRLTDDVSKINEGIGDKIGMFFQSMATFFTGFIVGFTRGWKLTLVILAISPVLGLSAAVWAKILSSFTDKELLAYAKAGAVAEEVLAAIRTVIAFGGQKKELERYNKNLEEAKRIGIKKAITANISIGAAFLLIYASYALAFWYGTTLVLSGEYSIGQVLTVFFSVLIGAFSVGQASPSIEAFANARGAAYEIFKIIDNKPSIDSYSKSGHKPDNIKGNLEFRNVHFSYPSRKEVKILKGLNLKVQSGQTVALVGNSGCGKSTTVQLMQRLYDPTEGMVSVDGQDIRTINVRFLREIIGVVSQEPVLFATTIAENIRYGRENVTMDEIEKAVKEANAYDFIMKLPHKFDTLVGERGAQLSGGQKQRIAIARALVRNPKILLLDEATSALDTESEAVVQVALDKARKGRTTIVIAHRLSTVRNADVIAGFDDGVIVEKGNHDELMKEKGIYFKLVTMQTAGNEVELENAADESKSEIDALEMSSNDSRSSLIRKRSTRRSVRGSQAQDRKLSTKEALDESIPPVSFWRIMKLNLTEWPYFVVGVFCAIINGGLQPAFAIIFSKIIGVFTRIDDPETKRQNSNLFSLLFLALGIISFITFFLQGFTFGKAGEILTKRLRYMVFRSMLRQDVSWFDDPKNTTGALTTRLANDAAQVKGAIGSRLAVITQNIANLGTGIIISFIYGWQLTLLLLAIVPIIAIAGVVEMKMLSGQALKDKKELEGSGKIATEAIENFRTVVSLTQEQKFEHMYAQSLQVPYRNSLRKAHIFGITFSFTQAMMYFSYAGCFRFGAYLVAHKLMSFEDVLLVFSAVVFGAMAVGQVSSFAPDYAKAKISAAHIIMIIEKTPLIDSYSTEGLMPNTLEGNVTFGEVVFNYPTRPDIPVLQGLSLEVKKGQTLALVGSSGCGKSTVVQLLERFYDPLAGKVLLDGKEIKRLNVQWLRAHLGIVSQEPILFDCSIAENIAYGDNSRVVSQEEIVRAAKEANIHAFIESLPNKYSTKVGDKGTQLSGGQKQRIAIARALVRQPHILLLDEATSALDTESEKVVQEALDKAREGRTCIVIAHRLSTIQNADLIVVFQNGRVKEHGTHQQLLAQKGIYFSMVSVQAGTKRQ

EC50 (ABCB1 transporter [1]) [µM]	SMILES	radiolabelled substrate accumulation/efflux in ABCB1-overexpressing KB-C2 vs par (ABCB1 transporter [2])
4.73	CC(=O)c1c(C)c2cnc(Nc3ccc(N4CCNCC4)cn3)nc2n(C2CCCC2)c1=O [palbociclib]	–
–	CC(=O)O[C@H]1C(=O)[C@@]2(C)[C@H]([C@H](OC(=O)c3ccccc3)[C@]3(O)C[C@H](OC(=O)[C@H](O)[C@@H](NC(=O)c4ccccc4)c4ccccc4)C(C)=C1C3(C)C)[C@]1(OC(C)=O)CO[C@@H]1C[C@@H]2O [[^3H]-paclitaxel]	significantly greater than that of KB-C2 drug-resistant cancer cell line, due to an increase in the extrusion of [^3H]-paclitaxel
